# Experimental data as given in US8076452B2, “Streptavidin-binding peptide” (priority 2002, dated 2011).
# Like-named read-outs stand apart in the source and are kept apart here.
# Assays:
# streptavidin [1] = target: T1, streptavidin (Streptomyces avidinii, UniProt P22629); conditions: prior art; read-out: dissociation constant Kd; cited from earlier work
# streptavidin [2] = target: T1, streptavidin; experiment: Dissociation constant measurement, BiacoreX, NTA sensor chip (first measurements); format: binding; conditions: for Kd: FABP with N-terminal 15-aa peptide, C-terminal His6 on NTA chip
# Description: Using standard methods for this technology, the FAB protein (fatty acid binding protein) (FABP) from bovine hearts was expressed in vitro in a cell-free protein biosynthesis by means of a coupled transcription/translation system. The expressed FAB protein had at the N terminus an additional streptavidin-binding peptide composed of 15 amino acids with different amino acid sequences as fusion partners.
# Two binding peptides contain in their amino acid sequence the HPQ motif (motif 1 and 2) described in the prior art, and two of them contain the streptavidin-binding peptide according to SEQ ID NOS: 1-6 according to the invention (motif 3 and 4). In addition, the expressed proteins were provided at the C terminus with a “His-tag” consisting of 6 histidines. The proteins were purified by means of affinity chromatography via Ni2+IDA-agarose using standard methods. It can be seen that with equal length, binding peptides of a sequence according to the invention have a substantially lower dissociation constant than a binding peptide with HPQ motif.
# The measurements of the dissociation constant were performed with a BiacoreX system and the sensor chip NTA of the company Biacore. The proteins generated during the expression described in Example 1 were investigated, i.e. FAB proteins, which had at the N terminus a peptide consisting of 15 amino acids as fusion partners and at the C terminus 6 histidines, which were needed for the immobilization on the sensor chip. The binding affinity of the proteins generated during the expression to streptavidin described in Example 1 was measured in the Biacore device according to manufacturer's instructions. The protein to be investigated is on the sensor chip, and a streptavidin solution having a defined concentration is sprayed in. The interaction (binding) between the two molecules is measured by the device and quantified as so-called resonance units (RU). For the measurement, the buffers specified by the manufacturer were used.
# streptavidin [3] = target: T1, streptavidin; experiment: Binding constants by surface plasmon resonance, BIAcore NTA chip, optimized measuring method; conditions: peptide N-terminal of FABP, C-terminal Gly2-His8, 1,100 RU immobilized
# Description: The information supplied by the substitution analysis was verified by determining the binding constants of different peptides by surface plasmon resonance spectroscopy using a BIAcore device. The measurements were made with the NTA sensor chip of the company BIAcore and by means of the fatty acid-binding protein from bovine hearts (FABP). The FABP served for the immobilization and presentation of the peptide. Further, it was intended to thus simulate the conditions occurring in an affinity chromatography, since the peptide is to be used in the future as an affinity peptide for the purification of proteins. In contrast to the first measurements, where the peptides to be verified replaced the four N terminal amino acids of the FABP, the arrangement of the peptides was this time also N terminal, but they were not part of the FABP. The His-tag necessary for the immobilization was also modified. It was located same as for the first measurements at the C terminus of the FABP, was however extended from six to eight histidines and further spaced by a linker consisting of two glycines from the FABP. Thereby, the immobilization of the ligands could distinctly be improved, and thus the drift of the base line resulting from the washing-off of the ligand could be minimized. For every measurement, an identical amount of the respective FABPs was immobilized, what corresponded to a rise of the base line by 1,100 resonance units (RU). As a reference was used the FABP with the His-tag, but without N terminal binding peptide.
# The binding constants obtained with the optimized measuring method were the following: […]
# streptavidin [4] = target: T1, streptavidin; experiment: Substitution analysis by spot synthesis on cellulose membrane, peroxidase-labeled streptavidin, luminescence; format: binding; conditions: peptide spots on cellulose membrane
# Description: The binding peptide (FAx 3) with the sequence DVEAWLDERVPLVET [SEQ ID NO: 16] was subjected to a substitution analysis, and it was intended thereby to identify a possible minimum motif (=shortened peptide) and examine the effect of individual amino acid exchanges on the binding specificity. In a substitution analysis, peptides are synthesized by means of spot methods (Frank, R. 1992) on a cellulose membrane serving as a solid phase. Every position of the peptide comprising 15 amino acids was systematically replaced by the other 19 L amino acids.
# The substitution analysis was incubated with a peroxidase-labeled streptavidin and developed with a luminescence substrate. Thereby it was possible to find out, how far the peptide can be shortened and which amino acids are “conserved” and thus not or only very poorly exchangeable. […] The substitution analysis also indicated positions, where the exchange of the original amino acid by another one could result in an improvement of the streptavidin binding.
# streptavidin-Sepharose = streptavidin-Sepharose (Streptomyces avidinii, UniProt P22629); experiment: Purification of the FABP fusion protein via streptavidin-Sepharose affinity column
# Description: (§1) Using standard methods, the FAB protein having at the N terminus an additional peptide consisting of 15 amino acids with the amino acid sequence DVEAWLDERVPLVET [SEQ ID NO: 16] (motif 3) as fusion partners, is expressed in vitro in a cell-free protein biosynthesis by means of a coupled transcription/translation system. For purification of the overexpressed defined protein, the streptavidin was coupled to a solid phase. As a solid phase was used a Sepharose. The expressed FAB protein was then purified using standard methods via a column comprising streptavidin-Sepharose or StrepTactin-Sepharose. For the purification the following buffers were used: washing buffer (100 mM Tris-HCl (pH 8.0), 150 mM NaCl, 1 mM EDTA).
# (§2) For the elution of streptavidin, the washing buffer contained 2 mM biotin, and for the elution of StrepTactin, the washing buffer contained 2.5 mM desthiobiotin.
# (§3) The percentage distribution of the used defined protein on the various fractions of the affinity chromatography can be taken from Table 3. In Table 3, D represents the application of sample/passage, W washing fraction, and E elution fraction.
# StrepTactin-Sepharose = StrepTactin-Sepharose (Streptomyces avidinii, UniProt P22629, E68V/S69T/V71R); experiment: Purification of the FABP fusion protein via StrepTactin-Sepharose affinity column
# Description: as §1, §2, §3
# Chain of StrepTactin-Sepharose (P22629 38-163 E68V/S69T/V71R): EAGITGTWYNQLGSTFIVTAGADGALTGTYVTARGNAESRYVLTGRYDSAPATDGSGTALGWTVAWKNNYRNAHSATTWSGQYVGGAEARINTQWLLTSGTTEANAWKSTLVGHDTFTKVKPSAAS
# T1 sequence (P22629 25-183, species assumed): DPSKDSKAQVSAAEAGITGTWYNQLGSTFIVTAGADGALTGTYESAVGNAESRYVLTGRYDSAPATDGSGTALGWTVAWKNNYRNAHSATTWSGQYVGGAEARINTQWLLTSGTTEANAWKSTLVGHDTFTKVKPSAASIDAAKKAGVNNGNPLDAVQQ
# Chain of streptavidin-Sepharose (P22629 25-183): as the sequence (P22629 25-183, species assumed) above
substance,measurement,setting,value
AWRHPQFGG [Strep-tag I],Kd,streptavidin [1],10000 to 37000 nM
"DLYDIDRNWVGHPQG [motif 1, D L Y D I D R N W V G H P Q G, reference compound]",Kd,streptavidin [2],8000 nM
same,resonance units (RU),streptavidin [2]; Streptavidin conc. 500 nM,62 RU
same,resonance units (RU),streptavidin [2]; Streptavidin conc. 1 μM,123 RU
same,resonance units (RU),streptavidin [2]; Streptavidin conc. 2 μM,233 RU
same,resonance units (RU),streptavidin [2]; Streptavidin conc. 4 μM,407 RU
same,resonance units (RU),streptavidin [2]; Streptavidin conc. 8 μM,621 RU
same,resonance units (RU),streptavidin [2]; Streptavidin conc. 16 μM,779 RU
same,resonance units (RU),streptavidin [2]; Streptavidin conc. 32 μM,955 RU
"DNYDADLAWDTHPQD [motif 2, D N Y D A D L A W D T H P Q D, reference compound]",Kd,streptavidin [2],70000 nM
same,resonance units (RU),streptavidin [2]; Streptavidin conc. 3 μM,64 RU
same,resonance units (RU),streptavidin [2]; Streptavidin conc. 6 μM,98 RU
same,resonance units (RU),streptavidin [2]; Streptavidin conc. 15 μM,201 RU
same,resonance units (RU),streptavidin [2]; Streptavidin conc. 30 μM,337 RU
same,resonance units (RU),streptavidin [2]; Streptavidin conc. 60 μM,536 RU
DVDAWLDER,Kd,streptavidin [3]; read-out: Kd,940 ± 140 nM
DVEAWFDER,Kd,streptavidin [3],not measurable
"DVEAWIADPAVHFTT [motif 4, D V E A W I A D P A V H F T T]",Kd,streptavidin [2],200 nM
same,resonance units (RU),streptavidin [2]; Streptavidin conc. 30 nM,68 RU
same,resonance units (RU),streptavidin [2]; Streptavidin conc. 60 nM,171 RU
same,resonance units (RU),streptavidin [2]; Streptavidin conc. 125 nM,280 RU
same,resonance units (RU),streptavidin [2]; Streptavidin conc. 250 nM,384 RU
same,resonance units (RU),streptavidin [2]; Streptavidin conc. 500 nM,478 RU
same,resonance units (RU),streptavidin [2]; Streptavidin conc. 1 μM,560 RU
same,resonance units (RU),streptavidin [2]; Streptavidin conc. 2 μM,644 RU
DVEAWL,streptavidin binding,streptavidin [4],sufficient streptavidin binding
DVEAWLDAR,Kd,streptavidin [3]; read-out: Kd,160 ± 30 nM
DVEAWLDER,streptavidin binding,streptavidin [4],clearly better streptavidin binding
same,Kd,streptavidin [3]; read-out: Kd,240 ± 40 nM
"DVEAWLDERVPLVET [motif 3, D V E A W L D E R V P L V E T]",Kd,streptavidin [2],84 nM
same,resonance units (RU),streptavidin [2]; Streptavidin conc. 15 nM,98 RU
same,resonance units (RU),streptavidin [2]; Streptavidin conc. 30 nM,242 RU
same,resonance units (RU),streptavidin [2]; Streptavidin conc. 60 nM,461 RU
same,resonance units (RU),streptavidin [2]; Streptavidin conc. 125 nM,613 RU
same,resonance units (RU),streptavidin [2]; Streptavidin conc. 250 nM,704 RU
same,resonance units (RU),streptavidin [2]; Streptavidin conc. 500 nM,786 RU
same,resonance units (RU),streptavidin [2]; Streptavidin conc. 2 μM,946 RU
same,resonance units (RU),streptavidin [2]; Streptavidin conc. 4 μM,983 RU
same,"percentage distribution of the protein, fraction D",streptavidin-Sepharose; application of sample/passage,3.5%
same,"percentage distribution of the protein, fraction E1","streptavidin-Sepharose; elution fraction 1, 2 mM biotin",0.4%
same,"percentage distribution of the protein, fraction E2","streptavidin-Sepharose; elution fraction 2, 2 mM biotin",76.9%
same,"percentage distribution of the protein, fraction E3","streptavidin-Sepharose; elution fraction 3, 2 mM biotin",0.7%
same,applied protein recovered for the eluate,streptavidin-Sepharose; streptavidin-Sepharose,78%
same,applied protein recovered from the column,streptavidin-Sepharose; streptavidin-Sepharose,90%
same,"percentage distribution of the protein, Tot.",streptavidin-Sepharose; sum of all fractions,89.6%
same,"percentage distribution of the protein, fraction W1",streptavidin-Sepharose; washing fraction 1,6.8%
same,"percentage distribution of the protein, fraction W2",streptavidin-Sepharose; washing fraction 2,1.0%
same,"percentage distribution of the protein, fraction W3",streptavidin-Sepharose; washing fraction 3,0.3%
same,applied protein recovered for the eluate,StrepTactin-Sepharose; StrepTactin-Sepharose,71%
same,applied protein recovered from the column,StrepTactin-Sepharose; StrepTactin-Sepharose,84%
same,"percentage distribution of the protein, fraction D",StrepTactin-Sepharose; application of sample/passage,3.0%
same,"percentage distribution of the protein, fraction E1","StrepTactin-Sepharose; elution fraction 1, 2.5 mM desthiobiotin",0.9%
same,"percentage distribution of the protein, fraction E2","StrepTactin-Sepharose; elution fraction 2, 2.5 mM desthiobiotin",45.9%
same,"percentage distribution of the protein, fraction E3","StrepTactin-Sepharose; elution fraction 3, 2.5 mM desthiobiotin",23.2%
same,"percentage distribution of the protein, fraction E4","StrepTactin-Sepharose; elution fraction 4, 2.5 mM desthiobiotin",1.0%
same,"percentage distribution of the protein, fraction E5","StrepTactin-Sepharose; elution fraction 5, 2.5 mM desthiobiotin",0.3%
same,"percentage distribution of the protein, Tot.",StrepTactin-Sepharose; sum of all fractions,84.4%
same,"percentage distribution of the protein, fraction W1",StrepTactin-Sepharose; washing fraction 1,7.4%
same,"percentage distribution of the protein, fraction W2",StrepTactin-Sepharose; washing fraction 2,1.8%
same,"percentage distribution of the protein, fraction W3",StrepTactin-Sepharose; washing fraction 3,0.9%
same,Kd,streptavidin [3]; read-out: Kd,3.6 ± 0.6 nM
DVEAWLGAR,Kd,streptavidin [3]; read-out: Kd,17 ± 4 nM
DVEAWLGARVPLVET,Kd,streptavidin [3]; read-out: Kd,4.1 ± 0.6 nM
DVEAWLGER,Kd,streptavidin [3]; read-out: Kd,17 ± 4 nM
DVEAWLGERVPLVET,Kd,streptavidin [3]; read-out: Kd,4.2 ± 0.7 nM
DVEAWRDER,Kd,streptavidin [3],not measurable
DVGAWLDER,Kd,streptavidin [3]; read-out: Kd,570 ± 90 nM
MDEKTTGWRGGIIVVEGLAGELEQLRARLEHHPQGQREP [SBP-tag],Kd,streptavidin [1],2.5 nM
WSHPQFEK [Strep-tag II],Kd,streptavidin [1],18000 to 72000 nM
